Counter-ions that a name gives are not always drawn.
What was measured:
[1] = biological target: human VAP-1 enzyme (SSAO) (Homo sapiens (Human), UniProt Q16853); assay: Inhibitory effect on human VAP-1 enzyme (SSAO) activity, radiochemistry-enzymatic assay with 14C-benzylamine; type: biochemical; conditions: CHO-expressed human VAP-1, 14C-benzylamine 1×10^−5 mol/L
Method: (§1) After homogenizing CHO (Chinese Hamster Ovary) cells stably expressing a human VAP-1 enzyme (SSAO) in a 50 mM phosphate buffer containing 1% NP-40, an enzyme suspension was obtained by taking the supernatant obtained by centrifugation. The enzyme suspension was preincubated with the compound of the present invention in a 96-well microplate at room temperature for 30 minutes. Subsequently, the enzyme suspension was incubated with ^14C-benzylamine (a final concentration of 1×10^−5 mol/L) to a final volume of […] at 37° C. for 1 hour. The enzymatic reaction was stopped by the addition of 2 mol/L (50 pt) of citric acid.

[2] = test system: VAP-1 enzyme (SSAO) activity in rat plasma; assay: Inhibitory effect on rat VAP-1 enzyme (SSAO) activity in rat plasma after oral administration; type: in vivo, Wistar male rats; conditions: rat plasma VAP-1 activity, oral 0.3 mg/kg; for Inhibition Ratio (%) 1 h: 1 h after administration; for Inhibition Ratio (%) 3 h: 3 h after administration; for Inhibition Ratio (%) 6 h: 6 h after administration; for Inhibition Ratio (%) 24 h: 24 h after administration; for Inhibition Ratio (%) 12 h: 12 h after administration
Method: Eight-week to twelve-week Wistar male rats were fasted for 20 hours, and orally administered with a test drug ([…]). Heparin blood collection from the tail vein was performed immediately before the administration, and at 1 h, 3 h, 6 h, 12 h, or 24 h after the administration. The resulting blood was subjected to centrifugation at 14000 rpm for 5 minutes to separate plasma, and the VAP-1 enzyme activity in the resulting plasma was measured by a radio-enzyme assay method.
For the radio-enzyme assay method, ^14C-benzylamine which is a synthetic substrate (10 μM) was reacted with the resulting plasma at 37° C., and the resulting metabolite was extracted with a mixture of toluene/ethyl acetate. The radioactivity was measured and taken as a VAP-1 enzyme activity in the plasma. The effect of the test drug was calculated from the inhibitory ratio (%) of the VAP-1 activity after the administration of the test drug relative to the VAP-1 activity in the plasma immediately before the administration.

rat VAP-1 enzyme (SSAO) = rat VAP-1 enzyme (SSAO) (Rattus norvegicus (Rat), UniProt O08590); assay: Inhibitory effect on rat VAP-1 enzyme (SSAO) activity, radiochemistry-enzymatic assay with 14C-benzylamine; type: biochemical; conditions: CHO-expressed rat VAP-1, 14C-benzylamine 1×10^−5 mol/L
Sequence of rat VAP-1 enzyme (SSAO) (O08590 whole entry): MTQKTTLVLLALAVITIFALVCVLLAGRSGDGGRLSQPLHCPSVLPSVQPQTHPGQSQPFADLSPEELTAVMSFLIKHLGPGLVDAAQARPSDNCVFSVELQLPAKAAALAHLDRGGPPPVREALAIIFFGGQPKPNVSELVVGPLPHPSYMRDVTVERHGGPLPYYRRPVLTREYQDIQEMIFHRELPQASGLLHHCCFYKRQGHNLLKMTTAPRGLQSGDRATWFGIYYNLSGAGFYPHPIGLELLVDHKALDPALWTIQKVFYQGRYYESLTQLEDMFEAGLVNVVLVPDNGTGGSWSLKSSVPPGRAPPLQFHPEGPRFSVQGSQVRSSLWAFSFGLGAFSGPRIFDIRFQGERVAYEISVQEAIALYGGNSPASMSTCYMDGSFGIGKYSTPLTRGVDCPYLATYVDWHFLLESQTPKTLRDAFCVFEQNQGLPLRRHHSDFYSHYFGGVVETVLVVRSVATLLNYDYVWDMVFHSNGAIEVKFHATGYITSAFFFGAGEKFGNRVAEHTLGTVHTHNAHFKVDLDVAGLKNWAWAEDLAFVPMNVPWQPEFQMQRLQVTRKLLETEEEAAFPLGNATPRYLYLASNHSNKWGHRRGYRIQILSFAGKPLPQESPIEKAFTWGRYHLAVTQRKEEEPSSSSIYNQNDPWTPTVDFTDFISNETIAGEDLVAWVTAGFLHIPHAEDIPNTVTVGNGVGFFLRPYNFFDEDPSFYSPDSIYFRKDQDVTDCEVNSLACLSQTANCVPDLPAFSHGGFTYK
Method: as §1, with “rat” for “human”, “μL)” for “pt)”, “acid. The oxidation products were extracted directly in a 200 μL toluene scintillator, and the radioactivity was measured with a scintillation spectrometer.” for “acid.”

Sequence of human VAP-1 enzyme (SSAO) (Q16853 whole entry): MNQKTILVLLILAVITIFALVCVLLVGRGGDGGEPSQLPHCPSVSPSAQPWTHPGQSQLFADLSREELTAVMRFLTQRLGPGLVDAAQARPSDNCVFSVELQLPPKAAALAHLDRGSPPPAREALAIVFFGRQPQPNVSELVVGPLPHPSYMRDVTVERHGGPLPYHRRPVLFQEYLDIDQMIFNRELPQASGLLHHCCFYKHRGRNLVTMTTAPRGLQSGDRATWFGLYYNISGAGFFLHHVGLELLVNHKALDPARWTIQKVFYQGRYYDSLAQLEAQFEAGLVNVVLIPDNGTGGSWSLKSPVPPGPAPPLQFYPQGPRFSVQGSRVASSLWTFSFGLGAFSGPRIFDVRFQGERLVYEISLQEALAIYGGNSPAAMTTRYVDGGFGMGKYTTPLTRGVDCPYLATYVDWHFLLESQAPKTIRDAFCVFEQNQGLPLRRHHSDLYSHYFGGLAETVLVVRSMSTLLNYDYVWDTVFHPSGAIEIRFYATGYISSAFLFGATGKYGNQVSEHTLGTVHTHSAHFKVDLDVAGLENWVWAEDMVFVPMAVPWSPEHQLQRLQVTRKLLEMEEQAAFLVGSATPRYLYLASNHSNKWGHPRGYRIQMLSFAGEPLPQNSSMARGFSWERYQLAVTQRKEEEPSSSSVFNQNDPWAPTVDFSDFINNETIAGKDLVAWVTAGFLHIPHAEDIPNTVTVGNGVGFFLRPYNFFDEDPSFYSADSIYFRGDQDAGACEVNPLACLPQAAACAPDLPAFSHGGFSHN

Row | SMILES | IC50 [1] | Inhibition Ratio (%) 1 h [2] | Inhibition Ratio (%) 3 h [2] | Inhibition Ratio (%) 6 h [2] | Inhibition Ratio (%) 24 h [2] | IC50 (rat VAP-1 enzyme (SSAO)) | Inhibition Ratio (%) 12 h [2]
1 | N=C(N)NC(=O)OCc1cccc(-c2cnc(OCC3CCN(C(=O)c4cccnc4)CC3)nc2)c1F [Example 29] | 7.2 nM | 46% | 60% | 58% | 22% | 1.9 nM | 
2 | N=C(N)NC(=O)OCc1cccc(N2CCC(c3ccncc3)CC2)c1F [Example 52] | 23 nM | 90% | 68% | 52% |  | 1.7 nM | 37%
3 | COC1CN(c2ncc(-c3cccc(COC(=O)NC(=N)N)c3F)cn2)C1 [Example 63] | 3.4 nM | 83% | 87% | 80% |  | 1.1 nM | 68%
4 | N=C(N)NC(=O)OCc1cccc(-c2cnc(OCC3CCN(C(=O)C4CC4)CC3)nc2)c1F [Example 74] | 5.3 nM | 79% | 74% | 81% | 40% | 1.8 nM | 
5 | Cl.N=C(N)NC(=O)OCc1cccc(-c2cnc(N3CCOCC3)nc2)c1F [Example 81] | 9.7 nM | 78% | 78% | 78% |  | 3.9 nM | 53%
6 | CC(=O)Nc1nc(CCc2cccc(CNC(=O)NC(=N)N)c2)cs1.Cl [Example 83] | 25 nM | 34% | 66% | 86% |  | 1.9 nM | 53%
7 | CC(=O)N1CCC(COc2ncc(-c3cccc(CNC(=O)NC(=N)N)c3F)cn2)CC1 [Example 105] | 14 nM | 22% | 38% | 31% | 6% | 2.6 nM | 
8 | CC1(O)CCN(c2ncc(N3CCN(c4cccc(COC(=O)NC(=N)N)c4F)CC3)cn2)CC1 [Example 110] | 32 nM | 96% | 96% | 95% | 75% | 1.4 nM | 
9 | N=C(N)NC(=O)OCc1cccc(N2CCN(c3cnc(N4CC[C@@H](F)C4)nc3)CC2)c1F [Example 118] | 29 nM | 87% | 86% | 88% | 59% | 1.7 nM | 
10 | COc1ncc(N2CCN(c3cccc(COC(=O)NC(=N)N)c3F)CC2)cn1 [Example 126] | 15 nM | 98% | 97% | 97% | 69% | 0.53 nM | 
11 | CCS(=O)(=O)N1CCN(c2cccc(COC(=O)NC(=N)N)c2F)CC1 [Example 157] | 49 nM | 95% | 91% | 80% | 39% | 2.1 nM | 
12 | N=C(N)NC(=O)OCc1cccc(-c2cnc(N3CC[C@H](F)C3)nc2)c1 [Example 178] | 33 nM | 63% | 73% | 67% |  | 4.4 nM | 80%
13 | CC(=O)N1CCC(OC2CCN(c3cccc(COC(=O)NC(=N)N)c3F)CC2)CC1 [Example 220] | 25 nM | 80% | 80% | 84% | 27% | 1 nM | 
14 | N=C(N)NC(=O)OCc1cccc(N2CCN(C(=O)CC3CCOCC3)CC2)c1F [Example 273] | 19 nM | 55% | 74% | 54% | 19% | 0.95 nM | 
15 | N=C(N)NC(=O)OCc1cccc(N2CCN(c3cccnc3)CC2)c1F [Example 293] |  |  |  |  |  | 0.97 nM | 
16 | Cc1ccc(N2CCN(c3cccc(COC(=O)NC(=N)N)c3F)CC2)cn1 [Example 300] | 19 nM | 92% | 93% | 88% | 85% | 1.7 nM | 
17 | N=C(N)NC(=O)OCc1cccc(N2CCN(c3cccnc3)C(=O)C2)c1F [Example 304] | 34 nM | 52% | 56% | 56% | 18% | 6.6 nM | 
18 | COC1CN(c2ncc(N3CCN(c4cccc(COC(=O)NC(=N)N)c4F)CC3)cn2)C1 [Example 316, 2-fluoro-3-{4-[2-(3-methoxyazetidin-1-yl)pyrimidin-5-yl]piperazin-1-yl}benzyl carbamimidoylcarbamate trihydrochloride] | 11 nM | 91% | 99% | 98% |  | 0.9 nM | 91%
19 | N=C(N)NC(=O)NCc1cccc(-c2cnc(N3CCOCC3)nc2)c1 [Example 322] | 51 nM | 40% | 55% | 50% |  | 22 nM | 38%
20 | N=C(N)NC(=O)OCc1cccc(-c2cnc(N3CCN(c4ccc(CCC(=O)O)cc4)CC3)nc2)c1F [Example 335] | 11 nM | 82% | 84% | 86% |  | 2 nM | 83%
21 | CCC(=O)N1CCC(OC2CN(c3cccc(COC(=O)NC(=N)N)c3F)C2)CC1 [Example 551] | 14 nM | 68% | 59% | 51% | 5% | 1.8 nM | 
22 | COCc1ccc(OC2CN(c3cccc(COC(=O)NC(=N)N)c3F)C2)cn1 [Example 553] | 20 nM | 67% | 57% | 50% | 40% | 3 nM | 
23 | COCc1ccc(N2CCN(c3cccc(COC(=O)NC(=N)N)c3F)CC2)cn1 [Example 554] | 21 nM | 99% | 100% | 87% | 72% | 0.97 nM | 
24 | Cc1cc(COC2CN(c3cccc(COC(=O)NC(=N)N)c3F)C2)cc(C)n1 [Example 555] | 20 nM | 67% | 69% | 54% | 27% | 3.5 nM | 
25 | N=C(N)NC(=O)OCc1cccc(N2CCN(c3ccn4ccnc4c3)CC2)c1F [Example 556] | 2.7 nM | 55% | 70% | 46% | 19% | 1.3 nM | 
26 | COCc1cncc(N2CCN(c3cccc(COC(=O)NC(=N)N)c3F)CC2)c1 [Example 558] | 23 nM | 84% | 87% | 81% | 62% | 1.2 nM | 
27 | CC(=O)N1CCC(C2CN(c3cccc(COC(=O)NC(=N)N)c3F)C2)CC1 [Example 559] | 4.3 nM | 86% | 89% | 82% | 59% | 0.81 nM | 
28 | CCC(=O)N1CCC(C2CN(c3cccc(COC(=O)NC(=N)N)c3F)C2)CC1 [Example 560] | 9 nM | 89% | 91% | 84% | 58% | 1.4 nM | 

Reference: patent US9556160B2, “Guanidine compound” (Astellas Pharma Inc., priority 2011, dated 2017)
